Assay results reported in patent publication US11382889B2, “NRF2 activators for the prevention and/or treatment of axonal degeneration” (priority 2018, dated 2022).

System: X-ALD fibroblasts
Test: NRF2 response (HMOX1, NQO1, GCLC expression) in X-ALD patient fibroblasts incubated with excess VLCFA
Assay type: cell-based, human
Conditions: normalized to RPLP0, fold change to vehicle
Protocol: This means that the NRF-2 target genes HMOX1, NQO1 and GCLC increase their expression when incubated with excess VLCFA. See FIG. 4 (n=8 per genotype and condition). Gene expression normalized relative to RPLP0. Quantification depicted as fold change to vehicle-treated (Veh) fibroblasts.

| Structure (SMILES) | NRF2 response: expression of NRF-2 target genes HMOX1, NQO1 and GCLC |
| --- | --- |
| Cc1c[nH]c(-c2cnc(NCCNc3ccc(C#N)cn3)nc2-c2ccc(Cl)cc2Cl)n1 [CT99021] | restore a normal NRF2 response |
| Cn1cc(C2=C(c3ccc(Cl)cc3Cl)C(=O)NC2=O)c2ccccc21 [SB216763] | restore a normal NRF2 response |
